Starred links: 1 amine or outer side, 2 acyl side, 3 side chain; linkers in the order of their positions; H or OH if unused. Positions of bridges follow the written chain, without caps; N, C: chain ends. Non-standard residues stand in square brackets, D forms with d. Residues, ends and D or L forms follow the SMILES beside them. *: point of attachment. Phe(4-amidino) = N=C(N)c1ccc(C[C@H](N)C(=O)O)cc1; Phe(4-NH2) = Nc1ccc(C[C@H](N)C(=O)O)cc1; X3 = O=C([C@H](CCNC1=NCCN1)N[*:1])[*:2]; Phe(3-F) = N[C@@H](Cc1cccc(F)c1)C(=O)O; Phe(4-F) = N[C@@H](Cc1ccc(F)cc1)C(=O)O; 1Nal = N[C@@H](Cc1cccc2ccccc12)C(=O)O; Bta = N[C@@H](Cc1csc2ccccc12)C(=O)O; Hydrocinnamoyl = O=C(CCc1ccccc1)*; Hyp = O=C(O)[C@@H]1C[C@@H](O)CN1; d(hLeu) = CC(C)CC[C@@H](N)C(=O)O; hArg = N=C(N)NCCCC[C@H](N)C(=O)O; 4Pal = N[C@@H](Cc1ccncc1)C(=O)O; Cit = NC(=O)NCCC[C@H](N)C(=O)O; dCha = N[C@H](CC1CCCCC1)C(=O)O; Chg = N[C@H](C(=O)O)C1CCCCC1; Nicotinoyl = O=C(c1cccnc1)*; Nle = CCCC[C@H](N)C(=O)O; Orn = NCCC[C@H](N)C(=O)O; Aze = O=C(O)[C@@H]1CCN1; Nva = CCC[C@H](N)C(=O)O; X17 = c1cc(CC*)ccn1

This experiment addresses T1, human C5aR(CD88) (Homo sapiens, UniProt P21730).
T1 construct: expressed in transfected cells; host or cells: rat basophilic leukemia cells (RBL)
T1 sequence (P21730 1-350): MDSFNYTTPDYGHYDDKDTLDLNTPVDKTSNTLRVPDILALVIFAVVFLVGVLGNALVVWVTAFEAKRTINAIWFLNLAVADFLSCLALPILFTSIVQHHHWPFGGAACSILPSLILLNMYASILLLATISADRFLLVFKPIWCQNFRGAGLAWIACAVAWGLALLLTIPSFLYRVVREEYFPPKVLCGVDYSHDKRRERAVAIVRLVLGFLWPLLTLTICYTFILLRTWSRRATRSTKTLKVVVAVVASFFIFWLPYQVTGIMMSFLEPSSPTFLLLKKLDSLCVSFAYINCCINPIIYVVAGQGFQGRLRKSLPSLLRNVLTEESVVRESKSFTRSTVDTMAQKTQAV
Description: Determination of the IC50 value in an enzyme release assay (functional assay, antagonistic activity). It is filed as cell-based. The note with it: antagonistic activity; IC50 group in enzyme release assay, RBL cells expressing human C5aR(CD88); read-out: activity (group).
Regarding `CC(=O)N[C@@H](Cc1ccccc1)C(=O)N[C@H]1CCCNC(=O)[C@H](Cc2ccc(C(=N)N)cc2)NC(=O)[C@H](Cc2c[nH]c3ccccc23)NC(=O)[C@@H](CC2CCCCC2)NC(=O)[C@@H]2CCCN2C1=O` [compound 21] (Ac-F[Orn]P[dCha]W[Phe(4-amidino)]; lactam 2-C), the IC50 lay in the range of 200 to 2000 nM.
For `CC(=O)N[C@@H](Cc1ccccc1)C(=O)N[C@@H](CCCN)C(=O)N1CCC[C@H]1C(=O)N[C@H](CC1CCCCC1)C(=O)N[C@@H](Cc1csc2ccccc12)C(=O)N[C@@H](Cc1cccc(F)c1)C(N)=O` [Compound 255, Ac-Phe-Orn-Pro-cha-Bta-Mff-NH2] (Ac-F[Orn]P[dCha][Bta][Phe(3-F)]-NH2) the value was 10 to 20 nM; for `CCC[C@@H]1NC(=O)[C@H](Cc2c[nH]c3ccccc23)NC(=O)[C@@H](CCC(C)C)NC(=O)[C@@H]2C[C@@H](O)CN2C(=O)[C@@H](NC(=O)[C@@H](N)Cc2ccccc2)CCCNC1=O` [Compound 370, H-Phe-[Orn-Hyp-hle-Trp-Nva]] (H-F[Orn][Hyp][d(hLeu)]W[Nva]; lactam 2-C), 50 to 200 nM.
On to `CC(=O)NCCC[C@H](NC(=O)[C@H](Cc1ccccc1)NC(C)=O)C(=O)N1CCC[C@H]1C(=O)N[C@H](CC1CCCCC1)C(=O)N[C@@H](Cc1c[nH]c2ccccc12)C(=O)N[C@@H](Cc1ccccc1)C(N)=O` [Compound 82, Ac-Phe-Orn(Ac)-Pro-cha-Trp-Phe-NH2] (Ac-F[Orn](Ac)P[dCha]WF-NH2), for which the IC50 lay in the range of 50 to 200 nM.
Take `CC(=O)N[C@@H](Cc1ccccc1)C(=O)N[C@H]1CCCNC(=O)[C@H](CSCCc2ccncc2)NC(=O)[C@H](Cc2c[nH]c3ccccc23)NC(=O)[C@@H](CC2CCCCC2)NC(=O)[C@@H]2CCCN2C1=O` [compound 19] (Ac-F[Orn]P[dCha]WC(X17); lactam 2-C): the IC50 fell in the range of 200 to 2000 nM.
Take `CC(=O)N[C@@H](Cc1ccccc1)C(=O)N[C@@H](CCCN)C(=O)N1CCC[C@H]1C(=O)N[C@H](CC1CCCCC1)C(=O)N[C@@H](Cc1csc2ccccc12)C(=O)N[C@@H](Cc1cccc2ccccc12)C(N)=O` [Compound 249, Ac-Phe-Orn-Pro-cha-Bta-1Ni—NH2] (Ac-F[Orn]P[dCha][Bta][1Nal]-NH2): the IC50 lay in the range of 50 to 200 nM.
As to `CC(=O)N[C@@H](Cc1c[nH]cn1)C(=O)N[C@@H](Cc1ccccc1)C(=O)N[C@@H](CCCN)C(=O)N1CC[C@H]1C(=O)N[C@H](CC1CCCCC1)C(=O)N[C@@H](Cc1csc2ccccc12)C(=O)N[C@@H](Cc1ccccc1)C(N)=O` [Compound 138, Ac-His-Phe-Orn-Aze-cha-Bta-Phe-NH2] (Ac-HF[Orn][Aze][dCha][Bta]F-NH2), the IC50 lay within 50 to 200 nM.
For the compound `CC(=O)N[C@@H](Cc1ccccc1)C(=O)N[C@@H](CCCCNC(=N)N)C(=O)N1CCC[C@H]1C(=O)N[C@H](CC1CCCCC1)C(=O)N[C@@H](Cc1csc2ccccc12)C(=O)N[C@@H](Cc1ccccc1)C(N)=O` [Compound 121, Ac-Phe-Har-Pro-cha-Bta-Phe-NH2] (Ac-F[hArg]P[dCha][Bta]F-NH2), the IC50 is 20 to 50 nM.
For `CCCC[C@@H]1NC(=O)[C@H](Cc2c[nH]c3ccccc23)NC(=O)[C@@H](CC2CCCCC2)NC(=O)[C@@H]2CCCN2C(=O)[C@@H](NC(=O)[C@H](Cc2ccccc2)NC(=O)c2cccnc2)CCCNC1=O` [Compound 328, Fbn-Phe-[Orn-Pro-cha-Trp-Nle]] (Nicotinoyl-F[Orn]P[dCha]W[Nle]; lactam 2-C), the IC50 is 10 to 20 nM.
Turning to `CCCC[C@@H]1NC(=O)[C@H](Cc2ccc(F)cc2)NC(=O)[C@@H](CCC(C)C)NC(=O)[C@@H]2C[C@@H](O)CN2C(=O)[C@@H](NC(=O)[C@@H](N)Cc2ccccc2)CCCCNC1=O` [Compound 353, H-Phe-[Lys-Hyp-hle-Pff-Nle]] (H-FK[Hyp][d(hLeu)][Phe(4-F)][Nle]; lactam 2-C), the IC50 fell in the range of 50 to 200 nM.
For `CC(=O)N[C@@H](Cc1ccccc1)C(=O)N[C@H]1CCCNC(=O)[C@H](Cc2ccncc2)NC(=O)[C@H](Cc2c[nH]c3ccccc23)NC(=O)[C@@H](CC2CCCCC2)NC(=O)[C@@H]2CCCN2C1=O` [compound 23] (Ac-F[Orn]P[dCha]W[4Pal]; lactam 2-C) the value was 50 to 200 nM.
Under `CCCC[C@@H]1NC(=O)[C@H](Cc2ccc(F)cc2)NC(=O)[C@@H](CCC(C)C)NC(=O)[C@H](CO)NC(=O)[C@@H](NC(=O)[C@@H](N)Cc2ccccc2)CCCNC1=O` [Compound 388, H-Phe-[Orn-Ser-hle-Pff-Nle]] (H-F[Orn]S[d(hLeu)][Phe(4-F)][Nle]; lactam 2-C) stands 20 to 50 nM; under `NCCC[C@H](NC(=O)CCc1ccccc1)C(=O)N1CC[C@H]1C(=O)N[C@H](CC1CCCCC1)C(=O)N[C@@H](Cc1csc2ccccc12)C(=O)N[C@@H](Cc1ccccc1)C(N)=O` [Compound 106, 3PP-Orn-Aze-cha-Bta-Phe-NH2] (Hydrocinnamoyl-[Orn][Aze][dCha][Bta]F-NH2), 50 to 200 nM.
Under `CCCC[C@@H]1NC(=O)[C@H](Cc2c[nH]c3ccccc23)NC(=O)[C@@H](CC2CCCCC2)NC(=O)[C@H]([C@@H](C)O)NC(=O)[C@@H](NC(=O)[C@H](Cc2ccccc2)NC(C)=O)CCCNC1=O` [Compound 203, Ac-Phe-[Orn-Thr-cha-Trp-Nle]] (Ac-F[Orn]T[dCha]W[Nle]; lactam 2-C) stands 50 to 200 nM; under `CC(C)CC[C@H]1NC(=O)[C@@H]2C[C@@H](O)CN2C(=O)[C@@H](NC(=O)[C@@H](N)Cc2ccccc2)CCCNC(=O)[C@H](C2CCCCC2)NC(=O)[C@H](Cc2ccc(F)cc2)NC1=O` [Compound 362, H-Phe-[Orn-Hyp-hle-Pff-Chg]] (H-F[Orn][Hyp][d(hLeu)][Phe(4-F)][Chg]; lactam 2-C), 50 to 200 nM; under `CC(=O)N[C@@H](Cc1ccccc1)C(=O)N[C@@H](CCCN)C(=O)N1CCC[C@H]1C(=O)N[C@H](CC1CCCCC1)C(=O)N[C@@H](Cc1c[nH]c2ccccc12)C(=O)N[C@@H](Cc1cccc2ccccc12)C(N)=O` [Compound 94, Ac-Phe-Orn-Pro-cha-Trp-1Ni—NH2] (Ac-F[Orn]P[dCha]W[1Nal]-NH2), 20 to 50 nM.
Turning to `CC(=O)N[C@@H](Cc1ccccc1)C(=O)N[C@@H](CCCNC(N)=O)C(=O)N1CCC[C@H]1C(=O)N[C@H](CCC(C)C)C(=O)N[C@@H](Cc1csc2ccccc12)C(=O)N[C@@H](Cc1ccccc1)C(N)=O` [Compound 211, Ac-Phe-Cit-Pro-hle-Bta-Phe-NH2] (Ac-F[Cit]P[d(hLeu)][Bta]F-NH2), the IC50 lay within 20 to 50 nM.
Under `CC(=O)N[C@@H](Cc1ccccc1)C(=O)N[C@@H](CCNC1=NCCN1)C(=O)N1CC[C@H]1C(=O)N[C@H](CC1CCCCC1)C(=O)N[C@@H](Cc1csc2ccccc12)C(=O)N[C@@H](Cc1ccccc1)C(N)=O` [Compound 219, Ac-Phe-Fcn-Aze-cha-Bta-Phe-NH2] (Ac-F[X3][Aze][dCha][Bta]F-NH2) stands 10 to 20 nM; under `CC(=O)N[C@@H](Cc1ccccc1)C(=O)N[C@@H](Cc1ccc(N)cc1)C(=O)N1CCC[C@H]1C(=O)N[C@H](CC1CCCCC1)C(=O)N[C@@H](Cc1csc2ccccc12)C(=O)N[C@@H](Cc1ccccc1)C(N)=O` [Compound 127, Ac-Phe-Paf-Pro-cha-Bta-Phe-NH2] (Ac-F[Phe(4-NH2)]P[dCha][Bta]F-NH2), 200 to 2000 nM.
For `CC(C)CC[C@H]1NC(=O)[C@@H]2C[C@@H](O)CN2C(=O)[C@@H](NC(=O)[C@@H](N)Cc2ccccc2)CCCNC(=O)[C@H](CC(C)C)NC(=O)[C@H](Cc2ccc(F)cc2)NC1=O` [Compound 364, H-Phe-[Orn-Hyp-hle-Pff-Leu]] (H-F[Orn][Hyp][d(hLeu)][Phe(4-F)]L; lactam 2-C) the value was 50 to 200 nM.

(Values after patent publication US20080161232A1, “C5a Receptor Antagonist” (JERINI AG, priority 2005, published 2008).)
